System: baboon smooth muscle cells
Assay: Inhibition of PDGF-BB mitogenic activity on baboon smooth muscle cells ([3H] thymidine incorporation)
Format: cell-based
Conditions: for 3H Thymidine (CPM Incorporated), (-) Heparin: no heparin, control 1701
Experimental: NNC92-0270 was analyzed for the ability to inhibit the mitogenic activity of PDGF on baboon smooth muscle cells. All mitogenesis assays performed on baboon vascular smooth muscle cells (BVSMCs) were done on primary cultures of cells between passages 13 and 20 in culture. The initial cultures were established from outgrowth of aortic tissue explants. Baboon smooth muscle cells were plated at approximately 20,000 cells per well, in DMEM supplemented with 10% fetal calf serum, into 24-well culture dishes. One day prior to use the culture media was removed, and 1 ml of Mito Media (Table 5) was added to each well to allow the cells to become quiescent. At the time of the experiment the cells were stimulated with PDGF-BB. […] 20× stock solutions were made for each of the PDGF concentrations by dilution in 10 mM acetic acid containing 0.25% albumin, and 50 ul PDGF or dilution vehicle alone was added to the culture wells.
To analyze the activity of NNC92-0270 to neutralize PDGF-BB mitogenic activity, 1 ng/ml of PDGF was added to wells along with dilutions of NNC92-0270. The cells were incubated with the test samples for approximately 20 hours at 37 ° C. Fifty microliters of a 20× stock solution of [3H] Thymidine was then added to each well to give a final concentration of 1 μCi/ml. The cells were incubated for 4 hours at 37 ° C., washed with PBS, then harvested with trypsin and counted for [^3 H] thymidine incorporation in a Wallac (Turku, Finland) Betaplate™ liquid scintillation counter.
NNC92-0270 was incubated with 1 ng/ml of PDGF-BB in the presence of 0.5 U/ml of unfractionated heparin. The cells were pulse labeled with [^3 H] thymidine as described above and the level of [^3 H] thymidine determined.

O=C(NN1CCCCC1)NS(=O)(=O)c1ccc(CCNC(=O)c2[nH]c3ccccc3c2OCc2ccccc2)cc1 [NNC92-0270]
3H Thymidine (CPM Incorporated), (+) 0.5 U/ml Heparin (6.2 μM with 1 ng/ml PDGF-BB and 0.5 U/ml heparin): 1007 CPM
3H Thymidine (CPM Incorporated), (-) Heparin (6.2 μM with 1 ng/ml PDGF-BB): 1378 CPM
3H Thymidine (CPM Incorporated), (+) 0.5 U/ml Heparin (12.5 μM with 1 ng/ml PDGF-BB and 0.5 U/ml heparin): 586 CPM
3H Thymidine (CPM Incorporated), (-) Heparin (12.5 μM with 1 ng/ml PDGF-BB): 870 CPM
3H Thymidine (CPM Incorporated), (+) 0.5 U/ml Heparin (25 μM with 1 ng/ml PDGF-BB and 0.5 U/ml heparin): 220 CPM
3H Thymidine (CPM Incorporated), (-) Heparin (25 μM with 1 ng/ml PDGF-BB): 334 CPM
3H Thymidine (CPM Incorporated), (+) 0.5 U/ml Heparin (50 μM with 1 ng/ml PDGF-BB and 0.5 U/ml heparin): 211 CPM
3H Thymidine (CPM Incorporated), (-) Heparin (50 μM with 1 ng/ml PDGF-BB): 309 CPM
Effect of adding heparin to the compound on [3H] thymidine incorporation (in words) (0.5 U/ml unfractionated heparin, 1 ng/ml PDGF-BB): further inhibition
IC50 (Papio anubis, 20 h, read-out: ED50 for the inhibition of PDGF-BB mitogenic activity): ~12.5 µM

— patent publication US5731326A, “PDGF antagonists II” (ZymoGenetics, Inc., priority 1996, dated 1998)
